From ChEMBL document CHEMBL1201862, “PubChem BioAssay data set” (2004)
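Results reflect a 48-hour exposure of cells in 96-well plates to compound at five concentrations. Here, GI50 denotes the concentration required for 50% inhibition of growth.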 The source made the active and inactive calls. Cut-off read from the data, not from the text of the source: active = GI50 up to about 1.1 µM and inactive = higher.

What was measured:
Assay in all cases: growth of human tumour cells (NCI), 48 h
HT-29 = tested on: HT-29
TK-10 = tested on: TK-10
NCI-H23 = tested on: NCI-H23
SF-539 = tested on: SF-539
NCI-H226 = tested on: NCI-H226
HL-60 = tested on: HL-60
SK-MEL-28 = tested on: SK-MEL-28
PC-3 = tested on: PC-3
HCC 2998 = tested on: HCC 2998
UO-31 = tested on: UO-31
SR = tested on: SR
OVCAR-5 = tested on: OVCAR-5
Hs-578T = tested on: Hs-578T
ACHN = tested on: ACHN
MOLT-4 = tested on: MOLT-4
COLO 205 = tested on: COLO 205
MDA-MB-435 = tested on: MDA-MB-435
K562 = tested on: K562
CAKI-1 = tested on: CAKI-1
DU-145 = tested on: DU-145
IGROV-1 = tested on: IGROV-1
HOP-62 = tested on: HOP-62
NCI-H460 = tested on: NCI-H460
HCT-116 = tested on: HCT-116
OVCAR-8 = tested on: OVCAR-8
T47D = tested on: T47D
SW-620 = tested on: SW-620
SNB-75 = tested on: SNB-75
A498 = tested on: A498
Malme-3M = tested on: Malme-3M
MCF7 = tested on: MCF7
SK-MEL-2 = tested on: SK-MEL-2
SK-MEL-5 = tested on: SK-MEL-5
SK-OV-3 = tested on: SK-OV-3
EKVX = tested on: EKVX
SF-268 = tested on: SF-268
M14 = tested on: M14
U-251 = tested on: U-251
NCI-H522 = tested on: NCI-H522
NCI/ADR-RES = tested on: NCI/ADR-RES
RPMI-8226 = tested on: RPMI-8226
SNB-19 = tested on: SNB-19
MDA-MB-231 = tested on: MDA-MB-231
LOX IMVI = tested on: LOX IMVI
A549 = tested on: A549
HCT-15 = tested on: HCT-15
OVCAR-4 = tested on: OVCAR-4
UACC-62 = tested on: UACC-62
MDA-N = tested on: MDA-N
CCRF-CEM = tested on: CCRF-CEM
SN12C = tested on: SN12C
RXF 393 = tested on: RXF 393
KM12 = tested on: KM12
OVCAR-3 = tested on: OVCAR-3
SF-295 = tested on: SF-295
UACC-257 = tested on: UACC-257
786-0 = tested on: 786-0
HOP-92 = tested on: HOP-92

Measured: GI50

Cc1nc2[nH]ncn2c(=O)c1CCCl
inactive: HT-29 > 10 µM | TK-10 > 10 µM | NCI-H23 > 10 µM | SF-539 > 10 µM | NCI-H226 > 10 µM | HL-60 > 10 µM | SK-MEL-28 > 10 µM | PC-3 > 10 µM | HCC 2998 > 10 µM | UO-31 > 10 µM | SR > 10 µM | OVCAR-5 > 10 µM | Hs-578T > 10 µM | ACHN > 10 µM | MOLT-4 > 10 µM | COLO 205 > 10 µM | MDA-MB-435 > 10 µM | K562 > 10 µM | CAKI-1 > 10 µM | DU-145 > 10 µM | IGROV-1 > 10 µM | HOP-62 > 10 µM | NCI-H460 > 10 µM | HCT-116 > 10 µM | OVCAR-8 > 10 µM | T47D > 10 µM | SW-620 > 10 µM | SNB-75 > 10 µM | A498 > 10 µM | Malme-3M > 10 µM | MCF7 > 10 µM | SK-MEL-2 > 10 µM | SK-MEL-5 > 10 µM | SK-OV-3 > 10 µM | EKVX > 10 µM | SF-268 > 10 µM | M14 > 10 µM | U-251 > 10 µM | NCI-H522 > 10 µM | NCI/ADR-RES > 10 µM | RPMI-8226 > 10 µM | SNB-19 > 10 µM | MDA-MB-231 > 10 µM | LOX IMVI > 10 µM | A549 > 10 µM | OVCAR-4 > 10 µM | UACC-62 > 10 µM | MDA-N > 10 µM | CCRF-CEM > 10 µM | SN12C > 10 µM | RXF 393 > 10 µM
> 10 µM: HCT-15

NCCN1CCCCCc2ccccc21
inactive: HT-29 > 10 µM | TK-10 > 10 µM | NCI-H23 > 10 µM | SF-539 > 10 µM | NCI-H226 > 10 µM | HL-60 > 10 µM | SK-MEL-28 > 10 µM | PC-3 > 10 µM | HCC 2998 > 10 µM | UO-31 > 10 µM | SR > 10 µM | Hs-578T > 10 µM | ACHN > 10 µM | MOLT-4 > 10 µM | COLO 205 > 10 µM | MDA-MB-435 > 10 µM | K562 > 10 µM | CAKI-1 > 10 µM | DU-145 > 10 µM | IGROV-1 > 10 µM | HOP-62 > 10 µM | NCI-H460 > 10 µM | HCT-116 > 10 µM | OVCAR-8 > 10 µM | T47D > 10 µM | SW-620 > 10 µM | KM12 > 10 µM | SNB-75 > 10 µM | A498 > 10 µM | Malme-3M > 10 µM | MCF7 > 10 µM | SK-MEL-2 > 10 µM | SK-MEL-5 > 10 µM | SK-OV-3 > 10 µM | OVCAR-3 > 10 µM | EKVX > 10 µM | SF-268 > 10 µM | SF-295 > 10 µM | U-251 > 10 µM | NCI-H522 > 10 µM | NCI/ADR-RES > 10 µM | RPMI-8226 > 10 µM | SNB-19 > 10 µM | UACC-257 > 10 µM | LOX IMVI > 10 µM | A549 > 10 µM | OVCAR-4 > 10 µM | UACC-62 > 10 µM | CCRF-CEM > 10 µM | SN12C > 10 µM | RXF 393 > 10 µM | 786-0 > 10 µM
> 10 µM: HCT-15

CCOc1cc2c(=O)oc3c(OC)ccc4ccc(c1OC)c2c43
> 100 µM: HCT-15
inactive: HT-29 97.5 µM | TK-10 > 100 µM | NCI-H23 73.5 µM | SF-539 > 100 µM | NCI-H226 60 µM | HL-60 > 100 µM | SK-MEL-28 > 100 µM | PC-3 > 100 µM | HCC 2998 77.3 µM | UO-31 > 100 µM | OVCAR-5 > 100 µM | Hs-578T 44.8 µM | ACHN 37.4 µM | MOLT-4 > 100 µM | COLO 205 > 100 µM | MDA-MB-435 > 100 µM | K562 > 100 µM | CAKI-1 > 100 µM | DU-145 > 100 µM | IGROV-1 > 100 µM | HOP-62 46.5 µM | HOP-92 > 100 µM | NCI-H460 25.1 µM | HCT-116 6.64 µM | OVCAR-8 25.2 µM | T47D > 100 µM | SW-620 > 100 µM | KM12 > 100 µM | SNB-75 64.3 µM | A498 > 100 µM | Malme-3M > 100 µM | MCF7 > 100 µM | SK-MEL-2 > 100 µM | SK-MEL-5 > 100 µM | SK-OV-3 25.1 µM | OVCAR-3 > 100 µM | EKVX > 100 µM | SF-268 > 100 µM | SF-295 96.8 µM | M14 45.3 µM | U-251 34.5 µM | NCI-H522 16.7 µM | NCI/ADR-RES 36.2 µM | SNB-19 59.2 µM | MDA-MB-231 14.5 µM | UACC-257 > 100 µM | LOX IMVI > 100 µM | A549 28.5 µM | OVCAR-4 58.7 µM | UACC-62 > 100 µM | MDA-N > 100 µM | CCRF-CEM > 100 µM | SN12C > 100 µM | RXF 393 52.7 µM | 786-0 36.5 µM
